The results in this text go back to patent US11718628B2, “SREBP inhibitors comprising a 6-membered central ring” (Capulus Therapeutics, LLC, priority 2018, dated 2023).

Read-outs that look alike come from different tables or passages of the source. A value given as a limit tells only on which side of the number the result lay.

For data set [1], the system named is liver gene expression (ACACA, ACLY, FASN, LSS, PNPLA3). The data set can be described thus: Liver gene expression in mice after oral administration. Conditions: 30 mpk, vs vehicle. Type of data set: in vivo. How it is done: (§1) The pharmacodynamic properties of selected compounds were evaluated in mice. The animals were housed in cages with clean bedding, and maintained and monitored for good health in accordance with Test Facility SOPs and at the discretion of the laboratory animal veterinarian. Certified rodent diet was provided. Food and water was available ad libitum. Environmental controls for the animal room were set to maintain a temperature of 22° C. to 25° C., humidity of 40-70% RH, and a 12-hour light/[…]. Normal healthy animals certified by the attending veterinarian were selected and acclimatized for minimum three days prior to initiation of study. Animals were identified with body markings.
(§2) Aliquots of the compounds being evaluated were weighed and triturated with 0.5% methylcellulose (with the addition of 5% N-methyl pyrrolidone when required to remove clumping, as for Z-806) to an appropriate dose concentration. Vials were labeled with the information about study number, test item, concentration and date of preparation. A description of appearance of formulation was recorded (e.g., color, turbidity, etc.). The composition of formulation vehicle was recorded. An aliquot of each dose solution was taken before the dosing began and after dosing was finished, and stored at approximately −20° C. or below for subsequent analysis. The animals were dosed orally through oral gavage needle, and time of dosing was recorded.
(§3) Liver Collection at 6 h or 24 h: Immediately after blood withdrawal for pharmacokinetic evaluation (at 6 or at 24 h), liver tissue was collected without perfusion. Animals were euthanized using carbon dioxide gas in a CO2 chamber. The whole blood was drained by cutting the both side jugular vein and abdominal aorta. The liver was separated out. All the liver samples were divided in two parts. The first part (200 mg approx.) was snap frozen using liquid nitrogen as soon as possible. These samples were immediately transferred to −80° C. for storage. The remaining part was weighed and used for bioanalysis.
RNA Processing and Gene Expression Analysis: Liver Tissue RNA was harvested with the RNEasy kit and 20-100 ng used to synthesize cDNA with random primers following the manufacturer's protocol. Quantitative PCR was performed on 1 pg to 100 ng cDNA for the following genes: ACACA, ACLY, FASN, LSS, PNPLA3. Gene expression levels were determined using ΔΔCT method comparing treated to vehicle treated samples as a baseline, and fold change calculated. The average value for all 5 genes above was averaged and termed to Total Fold Change The results from this evaluation are presented in Table 8.

A short description of data set [2]: Log D by octanol/aqueous buffer partitioning. Conditions: pH 7.4, 1-octanol/buffer. Type of data set: physicochemical. As to the method:
The Log D of selected compounds was evaluated by octanol/aqueous buffer partitioning. 500 μL of organic phase (1-octanol) was added to each well of a 2 mL deep well plate, followed by 500 μL of buffer and 15 μL of test compound in DMSO (0.15 mM). The plate was vortexed for 10 seconds and incubated at room temperature for 1 hr on a plate shaker at 200 rpm. After incubation, the samples were allowed to equilibrate for 20 min and then centrifuged at 4000 rpm for 30 min for complete phase separation. The distribution of test compound in buffer and octanol phase was analyzed by HPLC-UV. Log D=Log (Area of Octanol/Area of Buffer).

Data set [3] is described as follows: In vivo pharmacokinetic properties in mice (IV and PO). Also on record: species or system C57BL/6J mice. To be noted: mouse, in vivo; for Oral Administration (PO) AUC0-last / Oral Administration (PO) T1/2 / Oral Administration (PO) Tmax: 10 mg/kg. How it is done: (§4) The in vivo pharmacokinetic properties of compounds by both intravenous and oral administration were evaluated in male Sprague Dawley rats or C57BL/6J mice.
(§5) Animals were housed in cages with clean bedding. Certified rodent diet was provided. Water was available ad libitum. Environmental controls for the animal room were set to maintain a temperature of 22° C. to 25° C., humidity of 40-70% RH, and a 12-hour light/12-hour dark cycle. Normal healthy animals certified by the attending veterinarian were selected and acclimatized for minimum three days prior to initiation of study.
(§6) To evaluate pharmacokinetic properties of intravenous delivery, male Sprague Dawley rats were administered 2.00 mg compound/kg animal weight through the tail vein. The concentration of the compound in the plasma of the animals was evaluated at 0.083, 0.25, 0.5, 1, 2, 4, 8, 12 and 24 hr by taking blood samples from the cannulated jugular vein. For the C5Bl/6J mice, blood samples were collected through a capillary, guided in retro-orbital plexus.
[…] The concentration of compound in the plasma of the animals was evaluated at 0.25, 0.5, 1, 2, 4, 6, 8, 12 and 24 hr by taking blood samples from the cannulated jugular vein (rats) or through a capillary, guided in retro-orbital plexus (mice).

Data set [4] can be described thus: In vivo pharmacokinetic properties in rats (IV and PO). Further details: species or system male Sprague Dawley rats. How it is done:
as §4, §5
Surgical Procedure for Jugular Vein Cannulation of Rats: Rats were anaesthetized with a single dose of ketamine 50 mg/kg i.p.+xylazine 6 mg/kg i.p. The right jugular vein was exposed, a loose ligature was placed caudally, and the cranial end of vein was ligated. A small incision was made between the ligatures into which the catheter (polyethylene 50 tubing of internal diameter 0.58 mm and outer diameter 0.96 mm) was inserted. The catheter was secured in place by tying the loose ligature around the catheterized vessel. A small incision was made in the scapular region to serve as the exit site of the catheter. The catheter was subcutaneously tunneled and exteriorized through scapular incision. A stay suture was placed in the scapular area. Patency was tested, and catheter was filled with a locking solution (heparinized saline) and sealed with a stainless steel plug. The incision was then sutured with sterile suturing material. Anti-septic solution was applied to the sutured site and animal was placed back in the home cage.
as §6
To evaluate pharmacokinetic properties of oral delivery, rats (male Sprague Dawley rats) or mice (C5Bl/6J) were administered 10 mg compound/kg animal weight by mouth. The concentration of compound in the plasma of the animals was evaluated at 0.25, 0.5, 1, 2, 4, 6, 8, 12 and 24 hr by taking blood samples from the cannulated jugular vein (rats) or through a capillary, guided in retro-orbital plexus (mice).

Data set [5] in a line: Plasma and liver compound levels in mice after oral administration. The data set is classed as in vivo. To be noted: 30 mpk; for concentration at 6 h / concentration at 24 h: mouse, 30 mg/kg. How it is done:
as §1, §2
After dosing, the mice were anesthetized using gaseous anesthesia. Blood samples were collected through a capillary, guided in retro-orbital plexus, at 6 h or at 24 h. Approximately 100 uL of blood was collected from each mouse, in pre-labeled tubes. The collected blood was stored on ice prior to centrifugation. Blood samples were then centrifuged within 1 hour of collection to separate plasma. Centrifugation was conducted at 2500×g for 15 minutes at 4° C. The plasma was separated and transferred to pre-labeled micro-centrifuge tubes and promptly frozen at −80±10° C. until bioanalysis.
as §3

What is called LogD is lipophilicity at a set pH, counting ionised and neutral species. Take `CC(C)OC(=O)Nc1ccc(-c2cncc(-c3ccnc(C(C)(C)C)c3)c2)c(Cl)c1` [Compound Z-774]: in data set [1], the “Total Gene FC Time (6 h)” value is recorded as “++ (0.51-0.7509 = ++)” and the “Total Gene FC Time (24 h)” value is recorded as “+++ (0-0.509 = +++)”. Besides, the LogD in data set [2] was 4.12. Also, in data set [3], the “% F (Bioavailability of oral delivery)” value was 16%. Moreover, in data set [3] (iv, 2 mg/kg), the Intravenous Delivery (IV) AUC0-last was 1780 ng·h/mL, the “Intravenous Delivery (IV) CL” value worked out at 18.5 mL/min/kg, the “Intravenous Delivery (IV) T1/2” value worked out at 5.31 h and the “Intravenous Delivery (IV) Vd” value amounted to 8.51 L/kg. Also, in data set [3] (po), the Oral Administration (PO) AUC0-last came to 1380 ng·h/mL, the “Oral Administration (PO) T1/2” value amounted to 6.79 h and the “Oral Administration (PO) Tmax” value was found to be 30 min. For the same compound, in data set [4] (IV, 2 mg/kg), the “Intravenous Delivery (IV) CL” value came to 15.7 mL/min/kg, the “Intravenous Delivery (IV) T1/2” value came to 5.92 h and the “Intravenous Delivery (IV) Vd” value came out at 7.97 L/kg. The “% F (Bioavailability of oral delivery)” value in data set [4] (PO 10 mg/kg vs IV 2 mg/kg) was 5.8%. Further, in data set [4] (PO, 10 mg/kg), the “Oral Administration (PO) AUC0-last” value turned out to be 604, the “Oral Administration (PO) T1/2” value came to 3.74 h and the “Oral Administration (PO) Tmax” value was determined as 20 min. Moreover, in data set [5], the “Liver ng/mg (6 h)” value is over 1000 ng/mg, the “Plasma ng/mL (6 h)” value was in the range of 100 to 1000 ng/mL, the “Liver ng/mg 24 h” value is recorded as over 1000 ng/mg and the “Plasma ng/mL (24 h)” value was in the range of 100 to 1000 ng/mL.

On to `CC1(O)CCN(C(=O)c2ccc(-c3cncc(-c4ccnc(C(C)(C)C)c4)c3)c(Cl)c2)CC1` [Compound Z-780], for which, in data set [1], the “Total Gene FC Time (6 h)” value was “+ (>0.751 = +)” and the “Total Gene FC Time (24 h)” value is “++ (0.51-0.7509 = ++)”. For the same compound, the LogD in data set [2] is given as 3.76. Further, the “% F (Bioavailability of oral delivery)” value in data set [3] amounted to 33%. In data set [3] (iv, 2 mg/kg), the Intravenous Delivery (IV) AUC0-last is 913 ng·h/mL, the “Intravenous Delivery (IV) CL” value is reported as 36.3 mL/min/kg, the “Intravenous Delivery (IV) T1/2” value was found to be 2.02 h and the “Intravenous Delivery (IV) Vd” value is 6.33 L/kg. Moreover, in data set [3] (po), the Oral Administration (PO) AUC0-last came out at 1510 ng·h/mL, the “Oral Administration (PO) T1/2” value came out at 1.24 h and the “Oral Administration (PO) Tmax” value was found to be 15 min. Further, in data set [4] (IV, 2 mg/kg), the “Intravenous Delivery (IV) CL” value was 16.7 mL/min/kg, the “Intravenous Delivery (IV) T1/2” value was 1.14 h and the “Intravenous Delivery (IV) Vd” value was found to be 1.64 L/kg. The “% F (Bioavailability of oral delivery)” value in data set [4] (PO 10 mg/kg vs IV 2 mg/kg) turned out to be 29%. Moreover, in data set [4] (PO, 10 mg/kg), the “Oral Administration (PO) AUC0-last” value worked out at 2989, the “Oral Administration (PO) T1/2” value came out at 0.92 h and the “Oral Administration (PO) Tmax” value was 45 min. Further, in data set [5], the “Liver ng/mg (6 h)” value is on record as over 1000 ng/mg, the “Plasma ng/mL (6 h)” value fell in the range of 100 to 1000 ng/mL, the “Liver ng/mg 24 h” value is over 100 ng/mg and the “Plasma ng/mL (24 h)” value is under 100 ng/mL.

Usually bioavailability stands for dose-corrected exposure relative to a reference, in per cent. Regarding `O=C(c1ccc(-c2cncc(-c3ccnc4c3OCCO4)c2)c(Cl)c1)N1CCC(O)CC1` [Compound Z-806, (3-chloro-4-(5-(2,3-dihydro-[1,4]dioxino[2,3-b]pyridin-8-yl)pyridin-3-yl)phenyl)(4-hydroxypiperidin-1-yl)methanone], in data set [1], the “Total Gene FC Time (6 h)” value is recorded as “++ (0.51-0.7509 = ++)”. Besides, the “Total Gene FC Time (24 h)” value in data set [1] is given as “+++ (0-0.509 = +++)”. Besides, the LogD in data set [2] (1-octanol/aqueous buffer, read-out: LogD) is 1.98. The bioavailability in data set [3] (C57BL/6J) is 58%; in data set [4] (male, Sprague Dawley, rat, plasma, PO 10 mg/kg vs IV 2 mg/kg, read-out: % F (Bioavailability of oral delivery)), 2.1%. Also, the AUC(0-t) in data set [3] (C57BL/6J, iv, 2 mg/kg) was 1540 ng·h/mL; in data set [3] (C57BL/6J, po, 3 mg/kg) it was 1370 ng·h/mL; in data set [4] (male, Sprague Dawley, rat, plasma, 10 mg/kg, heading: Oral Administration AUC0-last, PO, 10 mg/kg) it was 272 ng·h/mL; in data set [4] (male, Sprague Dawley, rat, plasma, IV, 2 mg/kg, read-out: Intravenous Delivery (IV) AUC0-last) it was 2630 ng·h/mL. Moreover, the Vd in data set [3] (C57BL/6J, iv, 2 mg/kg) came to 8.91 L/kg; in data set [4] (male, Sprague Dawley, rat, plasma, IV, 2 mg/kg, read-out: Intravenous Delivery (IV) Vd) it was 2.26 L/kg. The clearance came to 21 mL/min/kg in data set [3] (C57BL/6J, iv, 2 mg/kg) and 12.8 mL/min/kg in data set [4] (male, Sprague Dawley, rat, plasma, IV, 2 mg/kg, read-out: Intravenous Delivery (IV) CL). The half-life in data set [3] (C57BL/6J, iv, 2 mg/kg) is 293 min; in data set [3] (C57BL/6J, po, 3 mg/kg) it was 211 min; in data set [4] (male, Sprague Dawley, rat, plasma, IV, 2 mg/kg, read-out: Intravenous Delivery (IV) T1/2 (converted)), 122 min; in data set [4] (male, Sprague Dawley, rat, plasma, PO, 10 mg/kg, read-out: Oral Administration (PO) T1/2 (converted)), 150 min. The Tmax was 15 min in data set [3] (C57BL/6J, po, 3 mg/kg) and 19.8 min in data set [4] (male, Sprague Dawley, rat, plasma, PO, 10 mg/kg, read-out: Oral Administration (PO) Tmax). Also, the concentration at 6 h in data set [5] (liver, read-out: Liver ng/mg (6 h)) is over 1e+06 ng/g; in data set [5] (plasma, read-out: Plasma ng/mL (6 h)) it was over 1000 ng/mL. Also, the concentration at 24 h in data set [5] (liver, read-out: Liver ng/mg 24 h) is over 1e+06 ng/g; in data set [5] (plasma, read-out: Plasma ng/mL (24 h)), over 1000 ng/mL.

The melting point is the temperature of the solid-liquid transition. On to `COc1c(-c2ccnc(C(C)(C)C)c2)cncc1-c1ccc(C(=O)N2CCC(O)CC2)cc1Cl` [Compound Z-840, (4-(2′-(tert-butyl)-4-methoxy-[3,4′-bipyridin]-5-yl)-3-chlorophenyl)(4-hydroxypiperidin-1-yl)methanone], for which the melting point is 105 to 109 °C.
